Key:
Lolium rigidum [1] = experiment: Herbicidal activity against Lolium rigidum accession A14 assessed as emergence rate applied at 1 times pre-emergence recommended rate applied in pots where terbufos had been incorporated into the soil relative to untreated control; format: functional
Lolium rigidum [2] = experiment: Herbicidal activity against Lolium rigidum accession A11 assessed as fresh weight reduction applied at 1 times pre-emergence recommended rate relative to untreated control; format: functional; design: scale not given: the % may be the effect or the level left
Acetolactate synthase [3] = target: T1, Acetolactate synthase (Lolium rigidum, UniProt A7XBP7); experiment: Inhibition of acetolactate synthase Ala-197/Ala-197 mutant in Lolium rigidum accession A20 leaves extracts by acetolactate production assay; conditions: read-out: I50
[4] = target: T2, Acetolactate synthase (Lolium rigidum) (UniProt A7XBP7); experiment: Resistance index, ratio of I50 for acetolactate synthase Pro-197/Arg-197 or Pro-197/Ser-197 or Pro/Val or Ala/Leu mutant in Lolium rigidum accession A17 leaves extracts to I50 for acetolactate synthase in Lolium rigidum accession A01 leaves extracts
T2 sequence (whole entry): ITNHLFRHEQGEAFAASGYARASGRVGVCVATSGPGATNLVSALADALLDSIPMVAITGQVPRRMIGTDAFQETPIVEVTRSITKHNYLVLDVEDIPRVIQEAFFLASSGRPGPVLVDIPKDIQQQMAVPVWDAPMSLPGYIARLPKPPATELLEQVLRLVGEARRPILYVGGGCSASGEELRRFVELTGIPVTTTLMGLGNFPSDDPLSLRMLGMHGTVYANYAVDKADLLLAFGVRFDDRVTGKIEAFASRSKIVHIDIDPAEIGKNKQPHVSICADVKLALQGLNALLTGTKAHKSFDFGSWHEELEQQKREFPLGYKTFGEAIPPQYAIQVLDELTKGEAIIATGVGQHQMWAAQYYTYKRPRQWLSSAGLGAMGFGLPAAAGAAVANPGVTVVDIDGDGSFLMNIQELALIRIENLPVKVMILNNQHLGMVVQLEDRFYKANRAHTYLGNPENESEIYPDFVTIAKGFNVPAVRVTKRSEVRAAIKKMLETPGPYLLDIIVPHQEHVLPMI

Lolium rigidum [5] = experiment: Herbicidal activity against Lolium rigidum accession A05 assessed as emergence rate applied at 1 times pre-emergence recommended rate applied in pots where terbufos had been incorporated into the soil relative to untreated control; format: functional
[6] = target: T2, Acetolactate synthase (Lolium rigidum); experiment: Resistance index, ratio of I50 for acetolactate synthase Pro-197/Leu-197 mutant in Lolium rigidum accession A07 leaves extracts to I50 for acetolactate synthase in Lolium rigidum accession A01 leaves extracts
Lolium rigidum [7] = experiment: Herbicidal activity against Lolium rigidum accession A13 assessed as fresh weight reduction applied at 1 times pre-emergence recommended rate applied in pots where terbufos had been incorporated into the soil relative to untreated control; format: functional; design: scale not given: the % may be the effect or the level left
[8] = target: T2, Acetolactate synthase (Lolium rigidum); experiment: Resistance index, ratio of I50 for acetolactate synthase Ala-197/Ala-197 mutant in Lolium rigidum accession A19 leaves extracts to I50 for acetolactate synthase in Lolium rigidum accession A01 leaves extracts
Lolium rigidum [9] = experiment: Herbicidal activity against Lolium rigidum accession A08 assessed as fresh weight reduction applied at 1 times pre-emergence recommended rate applied in pots where terbufos had been incorporated into the soil relative to untreated control; format: functional; design: scale not given: the % may be the effect or the level left
Lolium rigidum [10] = experiment: Herbicidal activity against Lolium rigidum accession A14 assessed as fresh weight reduction applied at 1 times pre-emergence recommended rate relative to untreated control; format: functional; design: scale not given: the % may be the effect or the level left
Lolium rigidum [11] = experiment: Herbicidal activity against Lolium rigidum accession A01 assessed as fresh weight reduction applied at 1 times pre-emergence recommended rate applied in pots where terbufos had been incorporated into the soil relative to untreated control; format: functional; design: scale not given: the % may be the effect or the level left
Lolium rigidum [12] = experiment: Herbicidal activity against Lolium rigidum accession A04 assessed as fresh weight reduction applied at 1 times pre-emergence recommended rate relative to untreated control; format: functional; design: scale not given: the % may be the effect or the level left
Lolium rigidum [13] = experiment: Herbicidal activity against Lolium rigidum accession A12 assessed as emergence rate applied at 1 times pre-emergence recommended rate relative to untreated control; format: functional
Lolium rigidum [14] = experiment: Herbicidal activity against Lolium rigidum accession A03 assessed as emergence rate applied at 1 times pre-emergence recommended rate applied in pots where terbufos had been incorporated into the soil relative to untreated control; format: functional
[15] = target: T2, Acetolactate synthase (Lolium rigidum); experiment: Resistance index, ratio of I50 for acetolactate synthase Ala-197/Ala-197 mutant in Lolium rigidum accession A06 leaves extracts to I50 for acetolactate synthase in Lolium rigidum accession A01 leaves extracts
Lolium rigidum [16] = experiment: Herbicidal activity against Lolium rigidum accession A02 assessed as fresh weight reduction applied at 4 times pre-emergence recommended rate relative to untreated control; format: functional; design: scale not given: the % may be the effect or the level left
[17] = target: T2, Acetolactate synthase (Lolium rigidum); experiment: Resistance index, ratio of I50 for acetolactate synthase Ala-197/Ala-197 mutant in Lolium rigidum accession A20 leaves extracts to I50 for acetolactate synthase in Lolium rigidum accession A01 leaves extracts
Lolium rigidum [18] = experiment: Herbicidal activity against Lolium rigidum accession A04 assessed as fresh weight reduction applied at 1 times pre-emergence recommended rate applied in pots where terbufos had been incorporated into the soil relative to untreated control; format: functional; design: scale not given: the % may be the effect or the level left
Lolium rigidum [19] = experiment: Herbicidal activity against Lolium rigidum accession A08 assessed as fresh weight reduction applied at 4 times pre-emergence recommended rate relative to untreated control; format: functional; design: scale not given: the % may be the effect or the level left
Acetolactate synthase [20] = target: T1, Acetolactate synthase; experiment: Inhibition of acetolactate synthase Ser-197/Ser-197 mutant in Lolium rigidum accession A21 leaves extracts by acetolactate production assay; conditions: read-out: I50
Lolium rigidum [21] = experiment: Herbicidal activity against Lolium rigidum accession A11 assessed as fresh weight reduction applied at 4 times pre-emergence recommended rate relative to untreated control; format: functional; design: scale not given: the % may be the effect or the level left
Lolium rigidum [22] = experiment: Herbicidal activity against Lolium rigidum accession A10 assessed as emergence rate applied at 4 times pre-emergence recommended rate relative to untreated control; format: functional
Lolium rigidum [23] = experiment: Herbicidal activity against Lolium rigidum accession A13 assessed as fresh weight reduction applied at 1 times pre-emergence recommended rate relative to untreated control; format: functional; design: scale not given: the % may be the effect or the level left
Acetolactate synthase [24] = target: T1, Acetolactate synthase; experiment: Inhibition of acetolactate synthase Ala-197/Ala-197 mutant in Lolium rigidum accession A06 leaves extracts by acetolactate production assay; conditions: read-out: I50
Acetolactate synthase [25] = target: T1, Acetolactate synthase; experiment: Inhibition of acetolactate synthase Pro-197/Pro-197 mutant in Lolium rigidum accession A09 leaves extracts by acetolactate production assay; conditions: read-out: I50
[26] = target: T2, Acetolactate synthase (Lolium rigidum); experiment: Resistance index, ratio of I50 for acetolactate synthase Pro-197/Pro-197 mutant in Lolium rigidum accession A11 leaves extracts to I50 for acetolactate synthase in Lolium rigidum accession A01 leaves extracts
Lolium rigidum [27] = experiment: Herbicidal activity against Lolium rigidum accession A09 assessed as fresh weight reduction applied at 1 times pre-emergence recommended rate relative to untreated control; format: functional; design: scale not given: the % may be the effect or the level left
[28] = target: T2, Acetolactate synthase (Lolium rigidum); experiment: Resistance index, ratio of I50 for acetolactate synthase Pro-197/Pro-197 mutant in Lolium rigidum accession A10 leaves extracts to I50 for acetolactate synthase in Lolium rigidum accession A01 leaves extracts
Lolium rigidum [29] = experiment: Herbicidal activity against Lolium rigidum accession A05 assessed as fresh weight reduction applied at 1 times pre-emergence recommended rate relative to untreated control; format: functional; design: scale not given: the % may be the effect or the level left
[30] = target: T2, Acetolactate synthase (Lolium rigidum); experiment: Resistance index, ratio of I50 for acetolactate synthase Ala-197/Ala-197 mutant in Lolium rigidum accession A05 leaves extracts to I50 for acetolactate synthase in Lolium rigidum accession A01 leaves extracts
Lolium rigidum [31] = experiment: Herbicidal activity against Lolium rigidum accession A13 assessed as fresh weight reduction applied at 4 times pre-emergence recommended rate relative to untreated control; format: functional; design: scale not given: the % may be the effect or the level left
Lolium rigidum [32] = experiment: Herbicidal activity against Lolium rigidum accession A05 assessed as fresh weight reduction applied at 4 times pre-emergence recommended rate relative to untreated control; format: functional; design: scale not given: the % may be the effect or the level left

Question: Which Activity (Lolium rigidum [1]) does the source give for `COc1nc(C)nc(NC(=O)NS(=O)(=O)c2ccccc2Cl)n1` [CHLORSULFURON] here?
Answer: 1%

Question: What about the Activity (Lolium rigidum [2]) of the same compound?
Answer: 54%

Question: What about the IC50 (Acetolactate synthase [3]) of the same compound?
Answer: 1090 nM

Question: What about the Ratio [4] of the same compound?
Answer: 29

Question: And the Activity (Lolium rigidum [5])?
Answer: 95%

Question: And the Ratio [6]?
Answer: 61

Question: And the Activity (Lolium rigidum [7])?
Answer: 100%

Question: What about the Ratio [8] of the same compound?
Answer: 620

Question: What about the Activity (Lolium rigidum [9]) of the same compound?
Answer: 5%

Question: What about the Activity (Lolium rigidum [10]) of the same compound?
Answer: 94%

Question: And the Activity (Lolium rigidum [11])?
Answer: 99%

Question: What about the Activity (Lolium rigidum [12]) of the same compound?
Answer: 96%

Question: And the Activity (Lolium rigidum [13])?
Answer: 2%

Question: And the Activity (Lolium rigidum [14])?
Answer: 1%

Question: What about the Ratio [15] of the same compound?
Answer: 470

Question: What about the Activity (Lolium rigidum [16]) of the same compound?
Answer: 97%

Question: And the Ratio [17]?
Answer: 36

Question: And the Activity (Lolium rigidum [18])?
Answer: 96%

Question: And the Activity (Lolium rigidum [19])?
Answer: 46%

Question: And the IC50 (Acetolactate synthase [20])?
Answer: 1580 nM

Question: What about the Activity (Lolium rigidum [21]) of the same compound?
Answer: 90%

Question: What about the Activity (Lolium rigidum [22]) of the same compound?
Answer: 0%

Question: And the Activity (Lolium rigidum [23])?
Answer: 98%

Question: And the IC50 (Acetolactate synthase [24])?
Answer: 14100 nM

Question: What about the IC50 (Acetolactate synthase [25]) of the same compound?
Answer: 30 nM

Question: What about the Ratio [26] of the same compound?
Answer: 1

Question: And the Activity (Lolium rigidum [27])?
Answer: 78%

Question: And the Ratio [28]?
Answer: 1

Question: What about the Activity (Lolium rigidum [29]) of the same compound?
Answer: 0%

Question: What about the Ratio [30] of the same compound?
Answer: 163

Question: And the Activity (Lolium rigidum [31])?
Answer: 99%

Question: What about the Activity (Lolium rigidum [32]) of the same compound?
Answer: 2%

Reference: ChEMBL document CHEMBL3046358, “Multiple Pro-197 substitutions in the acetolactate synthase of rigid ryegrass (Lolium rigidum) and their impact on chlorsulfuron activity and plant growth” (Crop Prot, 2012)
